Two compounds from patent US20250090441A1, “ANTI-CARIES PEPTIDES WITH ANTIMICROBIAL AND REMINERALIZING PROPERTIES AND METHODS THEREOF” (THE UNIVERSITY OF HONG KONG, priority 2023, published 2025) can be followed below.

The nature of assay [1]: Remineralizing effects on enamel, chemical pH cycling model (SEM-EDS, Micro-CT, XRD). On the set-up: species or system human. Particulars: 160 μM twice daily, pH cycling 8 days, n = 8; for Calcium to phosphate molar ratio: EDS; for Lesion depth / Mineral loss: Micro-CT. How it is done: Ten enamel slices were cut from extracted sound human molars. Each slice was separated into four blocks. A total of 40 enamel blocks were prepared. Then the surface of the enamel block was half-covered by an acid-resistant varnish. The exposed half was the experimental surface, and the varnished half was the internal control. Before use, all the enamel blocks were sterilized via autoclave (Niu et al. 2021d; Yu et al. 2018).
The pH-cycling procedure (16 h-demineralization at pH 4.5 and 8 h-remineralization at pH 7.0) was performed to enamel blocks for 8 days. The formula for demineralizing/remineralizing solution was employed from a previous study (Yu et al. 2018). The enamel blocks from the same enamel slice were treated twice daily with 160 μM GAPI (GAPI Group), 160 μM gallic acid (GA Group), 160 μM polyphemusin-I (PI Group), and sterile deionized water (Water Group). All enamel blocks after pH cycling were involved in sequent assessments.
The structure of the enamel surface was examined using SEM (n=8 per group) (Niu et al. 2021d). The elemental analysis of enamel surface was conducted using affiliated energy-dispersive X-ray spectroscopy (EDS). The calcium to phosphorus molar ratio was calculated (Niu et al. 2022). The mineral loss and lesion depth on the enamel blocks were assessed using microcomputed tomography (Micro-CT) (1076, SkyScan, Antwerp, Belgium) (n=8 per group) (Niu et al. 2022). The diffraction patterns of the enamel blocks were evaluated using X-ray diffraction analysis (XRD) (Rigaku SmartLab 9 kW, […]) (n=2 per group) (Yu et al. 2018).

The subject of assay [2] is Lacticaseibacillus casei, ATCC 334. The experiment in a line: MIC and MBC/MFC test. It counts as cell-based. The settings on record: μM. How it is done:
(§1) The antimicrobial properties of synthesized peptides against bacteria and fungi were evaluated using minimum inhibitory concentration (MIC) and minimum bactericidal/fungicidal concentration (MBC/MFC) tests (Wiegand et al. 2008). The tested species include Streptococcus mutans, UA159; Lacticaseibacillus casei, American Type Culture Collection (ATCC) 334; and Candida albicans, ATCC 90028. A 10 μL aliquot of bacterial culture (10^6 CFU/mL) in brain heart infusion (BHI) broth was added to 100 μL serial two-fold dilutions of experimental solutions. The optical density values at 660 nm were measured after 18 h of incubation. To determine the MBC, 10 μL of bacterial culture was taken from the well of MIC, and wells before and after the well of MIC, and transferred to blood agar. The test protocol for fungi was similar: the culture medium was a Roswell Park Memorial Institute (RPMI) 1640 Medium, the absorbance was measured at 520 nm, and Sabouraud dextrose agar was used for the MFC test. Chlorhexidine and medium were used as the positive and negative controls.

Assay [3] relates to Streptococcus mutans, UA159. The experiment in a line: MIC and MBC/MFC test. It counts as cell-based. The settings on record: Streptococcus mutans (UA159); μM. How it is done:
as §1

Assay [4] has as its system Candida albicans, ATCC 90028. Type of assay: cell-based. Particulars: μM. How it is done:
as §1

Bridges are numbered along the chain shown (N, C = ends). Where no end group is shown, it is not given here.

For `O=C(O)c1cc(O)c(O)c(O)c1` [GA, Gallic Acid], in assay [1], the “Calcium to phosphate molar ratio” value was 1.82 ± 0.08, the Lesion depth worked out at 62 ± 12 μm and the Mineral loss is on record as 0.88 ± 0.24 gHApcm^−3.
In assay [2], “Polyphemusin-I (RRWCFRVCYRGFCYRKCR; disulfide 8-13, 4-17) [PI, reference compound]” registered an MBC/MFC of 160 and an MIC of 20. In assay [3], this compound showed an MBC/MFC of 80 and an MIC of 20. Moreover, in assay [1], the “Calcium to phosphate molar ratio” value was determined as 1.70 ± 0.06, the Lesion depth amounted to 96 ± 9 μm and the Mineral loss is given as 1.32 ± 0.26 gHApcm^−3. In assay [4], this compound gave an MBC/MFC of 0.6 and an MIC of 0.3.
